According to US12178815B2, “Regimens for treating HIV infections and aids” (priority 2017, dated 2024):
Values after ≈ are worked out from the molar mass of the structure shown. Where two headings read alike, the source gives them in different places.

Columns and labels:
[1] = test system: virus with mixture at integrase codon 269 (R269R/G); test: Susceptibility of virus from subject with protocol-defined virologic failure (integrase R269R/G); parameters: species or system HIV-1; conditions: eight-week group subject
[2] = test system: virus with reverse transcriptase mutations K103N, E138G, and K238T and integrase mutation Q148R; test: Phenotypic resistance of virus from subject with protocol-defined virologic failure; parameters: species or system HIV-1; conditions: eight-week group subject, RT K103N
[3] = test system: wild-type HIV-1; test: in vitro protein-adjusted 90% inhibitory concentration (PA-IC90); format: cell-based; conditions: against wild-type HIV-1
[4] = LATTE-2 plasma pharmacokinetics (trough concentrations); format: in vivo, human; conditions: for C0 relative to in vitro PA-IC90 / C0 at 48 week: Week 48; for C0 at 48 week: human, plasma, im
Procedure: Pharmacokinetic plasma concentrations following long-acting cabotegravir+rilpivirine administration are summarized using evaluable data that met sample collection window criteria, excluding samples affected by dosing errors (wrong dose) or oral bridging. Sampling windows for intramuscular dosing were set relative to the previous injection as follows: ±0.5 hours for two-hour postdose samples; ±one day for one-week postinjection visits; ±two days for predose samples in the four-week group, Weeks 4 and 8 cabotegravir samples in the eight-week group, and midcycle concentrations four weeks postinjection in the eight-week group; and ±four days for predose samples in the eight-week group (except for Weeks 4 and 8 cabotegravir samples, as described earlier).

Structure (SMILES): C[C@H]1CO[C@@H]2Cn3cc(C(=O)NCc4ccc(F)cc4F)c(=O)c(O)c3C(=O)N12 [cabotegravir, (3S,11aR)—N-[(2,4-difluorophenyl)methyl]-2,3,5,7,11,11a-hexahydro-6-hydroxy-3-methyl-5,7-dioxo-oxazolo[3,2-a]pyrido[1,2-d] pyrazine-8-carboxamide]
- Effect of emergent integrase R269R/G mixture on susceptibility [1]: did not decrease
- Phenotypic resistance/sensitivity of subject's virus [2]: phenotypic resistance
- IC90 ([3]; Human immunodeficiency virus 1, read-out: in vitro protein-adjusted 90% inhibitory concentration (PA-IC90)): 0.166 µg/mL (≈ 0.41 µM)
- C0 relative to in vitro PA-IC90 ([4]; eight-week IM LA): 9 fold
- C0 relative to in vitro PA-IC90 ([4]; four-week IM LA): 16 fold
- C0 relative to in vitro PA-IC90 ([4]; oral 30 mg once daily): 27 fold
- C0 at 48 week ([4]; eight-week IM LA, read-out: geometric mean trough concentration (C0)): 1460 ng/mL
- C0 at 48 week ([4]; four-week IM LA, read-out: geometric mean trough concentration (C0)): 2580 ng/mL

Structure (SMILES): C[C@@H]1CCO[C@H]2Cn3cc(C(=O)NCc4ccc(F)cc4F)c(=O)c(O)c3C(=O)N12 [dolutegravir]
- Phenotypic resistance/sensitivity of subject's virus [2]: sensitive

Structure (SMILES): O=C1Nc2ccc(Cl)cc2[C@@](C#CC2CC2)(C(F)(F)F)O1 [efavirenz]
- Phenotypic resistance/sensitivity of subject's virus [2]: phenotypic resistance

Structure (SMILES): COc1cc2c(cc1Cc1cccc(Cl)c1F)c(=O)c(C(=O)O)cn2[C@H](CO)C(C)C [elvitegravir]
- Phenotypic resistance/sensitivity of subject's virus [2]: phenotypic resistance

Structure (SMILES): Cc1ccnc2c1NC(=O)c1cccnc1N2C1CC1 [nevirapine]
- Phenotypic resistance/sensitivity of subject's virus [2]: phenotypic resistance

Structure (SMILES): Cc1nnc(C(=O)NC(C)(C)c2nc(C(=O)NCc3ccc(F)cc3)c(O)c(=O)n2C)o1 [raltegravir]
- Phenotypic resistance/sensitivity of subject's virus [2]: phenotypic resistance

Structure (SMILES): Cc1cc(/C=C/C#N)cc(C)c1Nc1ccnc(Nc2ccc(C#N)cc2)n1 [rilpivirine]
- Phenotypic resistance/sensitivity of subject's virus [2]: phenotypic resistance
- IC90 ([3]; Human immunodeficiency virus 1, read-out: in vitro PA-IC90): 0.012 µg/mL (≈ 0.0327 µM)
- C0 relative to in vitro PA-IC90 ([4]; eight-week IM LA): 5 fold
- C0 relative to in vitro PA-IC90 ([4]; four-week IM LA): 8 fold
- C0 at 48 week ([4]; four-week IM LA, read-out: geometric mean C0): 94.6 ng/mL
- Accumulation on repeated IM dosing ([4]; through 48 weeks of dosing, both IM arms): Accumulation of rilpivirine was observed
